Laboratory results: patent US20230134377A1, “INSECT-REPELLENT PERSONAL-CARE COMPOSITION” (priority 2021, published 2023)

Columns and labels:
[1] = crystallization / phase stability of fatty acids in the MCT composition; type: physicochemical
Procedure: The first issue was one of phase stability, i.e., with higher levels of C12 fatty acid, the fatty acid precipitates out of the MCT matrix when essential oils are also present, leaving just the essential oils and the MCT carrier in solution.
The MCT as a dilutant at high enough percentage by weight in the composition prevents undesirable crystallization down to about 45-50° F. (with only C10 fatty acid, the composition is stable to about 12% concentration in the formula and with only C12 fatty acid, the composition is stable up to about 7%). It was also determined that the combination of either C8 or C10 with the C12 in a ratio of 1:4 or greater results in no undesirable crystallization.
A 100% substitution of the MCT with these yielded a clear product at cooler temperatures. […] Other co-solvents recognized by the present disclosure as useful in preventing crystallization of fatty acids from the composition include alcohols such as methanol, ethanol, propanol, and isopropanol. However, as indicated earlier, these alcohols are drying to the skin and should be avoided, if at all possible, in skin-care type repellent formulas.

[2] = system: mosquito, biting fly, tick; experiment: repellent behaviour of C12 fatty acid on treated skin; type: in vivo; conditions: insect will land but not bite on treated skin
[3] = 100% substitution of the MCT, cooler temperatures

Structure (SMILES) | concentration in the formula up to which the composition is stable (no crystallization) ([1]; only this fatty acid, in MCT as dilutant) | solubility in MCTs ([1]; without essential oils) | type of repellency [2] | effect of co-solvent on crystallization when added to the composition [1] | appearance after substitution of the MCT by the co-solvent ([1]; 25% substitution level) | appearance after substitution of the MCT by the co-solvent [1, 3]
CCCCCCCCCCCC(=O)O [C12 fatty acid, lauric acid] | about 7% | completely soluble | close-proximity or contact repellent | – | – | –
CCCCCCCCCCCCCC(=O)OC(C)C [isopropyl myristate] | – | – | – | limit crystallization | significant benefit but not to the total clarity | clear product
CCCCCCCCCC(=O)OC [methyl decanoate] | – | – | – | limit crystallization | significant benefit but not to the total clarity | clear product
